Where two headings read alike, the source gives them in different places.
Tests used:
[1] = system: cytochrome P450; conditions: Eriksson et al. 1996; cited from earlier work
[2] = Szabo and Dawson 1998; cited from earlier work
[3] = system: MHEC5-T cells; assay: Cell protection assay (in vitro), H2O2-induced cell death, Alamar blue; assay type: cell-based; conditions: MHEC5-T endothelial cells, 3 mM H2O2, 5 hours
Procedure: 2) Test Description Cell Protection Assay (in vitro)
In accordance with a method described by Bowes [Bowes et al., Br. J. Pharmacol., 124, 1760-1766 (1998)], the ability of PARS inhibitors to protect cells against cell death induced by incubation with H2O2 is examined in a cell protection assay. Incubation of endothelial cells with H2O2 results in the generation of DNA strand breaks which in turn activate PARS, resulting in a drastic energy decrease in the cells and in cell death. Living cells are quantified by a fluorimetric redox indicator (Alamar blue), which is converted in the electron transport system of the mitochondria.
Specifically, 7500 MHEC5-T cells/well (DSM ACC 336; German collection of microorganisms and cell cultures) are sown in 4 replications on a 96-well plate. After 24 hours, the cells are incubated with 3 mM aqueous H2O2 solution and differing concentrations of the substances in the presence of 6% by volume of Alamar blue solution in the medium at 37° C. for 5 hours. The reference substance used is 10 μM 1,5-dihydroxyisoquinoline (DHCH) solution. After the incubation, the fluorescence is measured at an excitation wavelength of 530-560 nm and an emission wavelength of 590 nm. The percentage for the cell protection is calculated as the difference between the living cells treated only with H2O2 and the cells treated with H2O2 and PARS inhibitors. The internal standard used is 10 μM DHCH, which is defined as 100% protection. The results obtained for the other substances are compared to this value.
The EC50 values indicate the concentration at which 50% of maximum cell protection is reached, maximum protection by 10 μM DHCH being defined as 100%. DHCH has an EC50 value of 2 μM.

[4] = 50% of maximum protection, 10 μM DHCH defined as 100%, read-out: EC50, cell protection (in vitro)

melting point | Structure (SMILES) | EC50 [3, 4] | other results
– | NC(=O)c1cccc(N)c1 [3-aminobenzamide] | – | inhibition of cytochrome P450 (unspecific PARS inhibitor) [1]: inhibits cytochrome P450
– | Nc1ccc2oc(=O)ccc2c1I [5-iodo-6-amino-1,2-benzopyrone] | – | side-effects [2]: serious side-effects
– | Oc1cccc2c(O)nccc12 [DHCH, 1,5-dihydroxyisoquinoline, reference compound] | – | EC50 ([3]; reference substance, read-out: EC50 value, cell protection): 2000 nM
189 °C | O=C1CCCN1CCCn1c2c(c(=O)[nH]c1=O)CCCC2 [Example 1, 1-[3-(2-Oxo-1-pyrrolidinyl)propyl]-5,6,7,8-tetrahydro-2,4(1H,3H)-quinazolinedione] | – | –
– | CN(CCCn1c2c(c(=O)[nH]c1=O)CSCC2)S(=O)(=O)c1ccccc1 [Example 2, N-[3-(2,4-Dioxo-3,4,7,8-tetrahydro-2H-thiopyrano[4,3-d]pyrimidin-1(5H)-yl)propyl]-N-methylphenylsulphonamide] | 500 nM | –
> 240 °C | O=c1[nH]c(=O)n(C2CCCC(NS(=O)(=O)c3ccc([N+](=O)[O-])cc3)C2)c2c1CCCC2 (centres unmarked) [Example 3, N-[3-(2,4-Dioxo-3,4,5,6,7,8-hexahydro-1(2H)-quinazolinyl)cyclohexyl]4-nitrobenzenesulphonamide] | – | –
> 240 °C | O=c1ccc2cc(S(=O)(=O)NC3CCCC(n4c5c(c(=O)[nH]c4=O)CCCC5)C3)ccc2o1 (centres unmarked) [Example 51] | – | –
– | CN(CCCn1c2c(c(=O)[nH]c1=O)CCCC2)S(=O)(=O)c1cccnc1 [Example 55] | 400 nM | –
– | CN(CCCn1c2c(c(=O)[nH]c1=O)CSCC2)S(=O)(=O)c1ccc2oc(=O)ccc2c1 [Example 57] | 300 nM | –
– | CN(CCCn1c2c(c(=O)[nH]c1=O)CSCC2)S(=O)(=O)c1ccc(F)cc1 [Example 58] | 400 nM | –
– | CN(CCCn1c2c(c(=O)[nH]c1=O)CSCC2)S(=O)(=O)c1cccnc1 [Example 59] | 250 nM | –
170 °C | CN(CCCn1c2c(c(=O)[nH]c1=O)CCCC2)S(=O)(=O)c1cccc2nsnc12 [Example 61] | 500 nM | –
> 240 °C | CN(CCCn1c2c(c(=O)[nH]c1=O)CCCC2)S(=O)(=O)c1c(Cl)nc2sccn12 [Example 62] | – | –
> 240 °C | CC(=O)Nc1nc(C)c(S(=O)(=O)N(C)CCCn2c3c(c(=O)[nH]c2=O)CCCC3)s1 [Example 63] | – | –
128 °C | CN(CCCn1c2c(c(=O)[nH]c1=O)CCCC2)S(=O)(=O)c1cn(C)cn1 [Example 65] | – | –
– | CN(CCCn1c2c(c(=O)[nH]c1=O)CSCC2)S(=O)(=O)c1ccsc1[N+](=O)[O-] [Example 67] | 50 nM | –

Reference: patent publication US6649618B2, “Substituted amidoalkyl-uracils and their use” (Bayer Aktiengesellschaft, priority 2000, dated 2003)
